Assay results published in patent US8394397B2, “Adhesive antineoplastic compositions” (Ed. Geistlich Soehne AG fuer Chemische Industrie, priority 2003, dated 2013).

Key:
[1] = Taurolidine release from fibrin sealant matrix into PBS supernatant over 7 days; assay type: physicochemical; conditions: irrespective of initial taurolidine concentration, 37° C.
Procedure: Different concentrations of taurolidine were homogenously suspended in the two components of the fibrin sealant. The two components were then mixed in wells of a 24-multiwell plate to prepare matrixes with identical total volumes of 400 μl per well containing final taurolidine concentrations of 10, 20, 40 and 80 mg/ml. The resulting thickness of the matrix was 2 mm ±0.4 mm. In addition, matrices with volumes of 400 μl and 800 μl containing 10 mg/ml or 40 mg/ml of taurolidine were prepared to investigate the effect of matrix size on taurolidine release. […] Matrices of identical volume and thickness without taurolidine served as controls. Supernatants of 400 μl phosphate-buffered saline (PBS) were added to each well after solidification. The multiwell plates were incubated at 37° C. The supernatants were pipetted off at 24-hour intervals over a period of 7 days and replaced by identical amounts of fresh PBS.

[2] = Long-term release kinetics of taurolidine from fibrin sealant matrix over 14 days; assay type: physicochemical; conditions: for percentage of taurolidine released from the matrix: irrespective of loading concentrations
Procedure: The long-term release kinetics of taurolidine was investigated by homogenously suspending different concentrations of taurolidine in the two components of the fibrin sealant in such a way that final concentrations (mg/ml) of 10, 40 and 80 mg/ml were achieved per 400 μl of fresh PBS at 24-hour intervals over a period of 14 days. The supernatants from the wells containing identical taurolidine concentrations were pooled. The taurolidine concentrations in the supernatants were determined.

[3] = test system: glial tumor cell lines LN18, LN229, U87MG, and ex vivo cells from a freshly isolated glioblastoma; assay: Crystal violet assay of tumor cells incubated with taurolidine released from the matrices; assay type: cell-based
Procedure: To determine whether the antineoplastic activity of taurolidine was affected by embedding in the matrix, the glial tumor cell lines LN18, LN229, U87MG, and ex vivo cells from a freshly isolated glioblastoma were incubated with taurolidine released from the matrices at different periods.
The LN18, LN229, and U87MG tumor cells and ex vivo cells from a glioblastoma were seeded in […] plastic cell culture flasks until a cell confluency of 80% was reached. The resulting cell suspensions were centrifuged at 1200 rpm for 5 min and then diluted to yield cell suspensions containing 5×10^4 cells per ml. Aliquots of 200 μl of the cell suspensions were pipetted into the wells of a 96-multiwell plate.
After 12 hours when the cells were adherent the medium was removed and replaced by fresh medium. The cells were incubated for 24 hours and the taurolidine solution released at different time intervals from the matrices loaded with different taurolidine concentrations. Tumor cells incubated with the same volume of supernatant from fibrin sealant matrix without taurolidine were used as negative controls. Identically treated cells to which Fas-ligand at a concentration of 25% was added served as positive controls.
After incubation for 24 hours, the supernatants were removed and 100 μl of crystal violet staining solution (0.5% crystal violet in 19.5% methanol and 80% distilled water) added. The solution was removed after 10 min and residual dye rinsed off with tap water. The plates were then left to air-dry for 12 hours followed by counting in a microplate counter at 540 nm.

[4] = cited from earlier work

- percentage of total taurolidine released from the matrix ([1]; within 6 days): 75.2±6.64%
- percentage of total taurolidine released from the matrix ([1]; within the first 2 days): 54.7±1.44%
- percentage of taurolidine released from the matrix ([2]; after 10 days): 98.93%±0.33
- percentage of taurolidine released from the matrix ([2]; after 14 days): 99.99%±0.02
- period over which antineoplastically effective amounts of taurolidine were released ([2]; loading concentrations of 25 mg/ml or above): 14 days
- taurolidine released on day 14 ([2]; loading concentrations of 50 mg/ml or higher, day 14): over 100 μg/ml
SMILES: O=S1(=O)CCN(CN2CCS(=O)(=O)NC2)CN1 [Taurolidine, Bis-(1,1-dioxoperhydro-1,2,4-thiadiazinyl-4)methane]
- proliferation of tumor cell lines and ex vivo glioblastoma cells ([3]; taurolidine released from matrices, 24 hours incubation): inhibited in an concentration-dependent manner
- reduction of cell counts ([3]; taurolidine released on day 3, loading concentration 100 mg/ml): at least 60%
- effect on tumor cell proliferation ([3]; taurolidine released on day 13 from TFM, initial loading concentration 10 mg/ml): no further effects on tumor cell proliferation
- water soluble up to [4]: up to 2%
